Reference: PubChem BioAssay (NCI)
Several values for one entry are separate records, joined by “and”; a condition that tells them apart may be missing. Identical values can stand only once.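 Cultured in 96-well plates, cells were exposed to test compound for 48 hours across five concentrations. Abbreviation: GI50, concentration required for 50% inhibition of growth. TGI denotes the concentration required for complete inhibition of growth.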 Where a SMILES comes first, the peptide text is derived from it. The star is where a group is joined. Cbz = O=C(OCc1ccccc1)*

Tests used:
Assay in all cases: DTP human tumour cell line panel, 48 h
[1] = tested on: UO-31 renal
[2] = tested on: IGROV1 ovarian
[3] = tested on: NCI-H460 lung
[4] = tested on: ACHN renal
[5] = tested on: SK-MEL-28 melanoma
[6] = tested on: MDA-N
[7] = tested on: SN12C renal
[8] = tested on: MDA-MB-435
[9] = tested on: RXF 393 renal
[10] = tested on: SNB-19 CNS
[11] = tested on: BT-549 breast

Cc1ccc2c(c1)CC1(Cc3cccc(C)c3C1=O)C2=O (centres undefined)
TGI [1]: > 100 µM
TGI [2]: > 100 µM
TGI [3]: > 100 µM
TGI [4]: > 100 µM
TGI [5]: > 100 µM
TGI [6]: > 10 µM
TGI [7]: > 100 µM
TGI [8]: > 10 µM
TGI [9]: > 100 µM

COCCn1cnc2c(Cl)nc(Nc3ccccc3)nc21
TGI [2]: 50.9 µM
TGI [3]: > 100 µM
TGI [10]: > 100 µM
TGI [4]: 36.4 µM
TGI [5]: > 100 µM
TGI [11]: 99 µM
TGI [7]: 95.4 µM
TGI [8]: 40.7 µM
TGI [9]: 47.4 µM

C=C1CC[C@H]2C(=O)OC(c3ccoc3)C[C@]2(C)C/C=C\C=C/1C(=O)OC (some centres undefined)
TGI [1]: > 25 µM
TGI [2]: > 25 µM
TGI [3]: > 25 µM
TGI [10]: > 25 µM
TGI [4]: > 25 µM
TGI [5]: > 25 µM
TGI [6]: > 25 µM
TGI [11]: > 25 µM
TGI [7]: > 25 µM
TGI [9]: > 25 µM

O=C(NCCN1CCOCC1)c1ccc(I)cc1
TGI [1]: > 100 µM
TGI [2]: > 100 µM
TGI [3]: > 100 µM
TGI [10]: > 100 µM
TGI [4]: > 100 µM
TGI [5]: > 100 µM
TGI [11]: > 100 µM
TGI [7]: > 100 µM

CC(=O)c1ccc2c(c1)C(=O)c1sc(C(C)=O)cc1C2=O
GI50 [1]: 1.4 µM
TGI [1]: 2.15 µM and 2.69 µM
GI50 [2]: 0.43 µM
TGI [2]: 2.55 µM and 1.59 µM
GI50 [3]: 0.362 µM
TGI [3]: 7.31 µM and 11 µM
GI50 [10]: 1.34 µM
TGI [10]: 1.66 µM and 2.61 µM
GI50 [4]: 0.405 µM
TGI [4]: 1.54 µM and 1.5 µM
GI50 [5]: 1.85 µM
TGI [5]: 14.2 µM and 3.61 µM
GI50 [6]: 0.316 µM
TGI [6]: 2.02 µM and 3.38 µM
GI50 [7]: 0.953 µM
TGI [7]: 2.18 µM and 4.76 µM
GI50 [8]: 0.176 µM
TGI [8]: 2.63 µM and 0.33 µM
TGI [9]: 4.7 µM

Cc1ccc(NC(=O)C(=O)C2C(=O)NC(=O)NC2=O)cc1C
TGI [1]: > 100 µM
TGI [2]: > 100 µM
TGI [3]: > 100 µM
TGI [10]: > 100 µM
TGI [4]: > 100 µM
TGI [5]: > 100 µM
TGI [7]: > 100 µM
TGI [9]: > 100 µM

COc1cccc(-c2nc(-c3cnccn3)n(C/C=C/c3ccccc3)n2)c1
TGI [1]: > 10 µM
TGI [2]: > 10 µM
TGI [3]: > 10 µM
TGI [10]: > 10 µM
TGI [4]: > 10 µM
TGI [6]: > 10 µM
TGI [11]: > 10 µM
TGI [7]: > 10 µM
TGI [8]: > 10 µM

O=Cc1ccc(-c2ccc(-c3ccc(CO)s3)o2)s1
TGI [1]: > 71.3 µM
TGI [3]: 3.21 µM
TGI [10]: > 100 µM
TGI [4]: > 100 µM
TGI [5]: > 80.1 µM
TGI [11]: 67.9 µM
TGI [7]: > 88.8 µM
TGI [8]: > 49.3 µM
TGI [9]: 47.6 µM

COc1ccc(/C=N/N=C(\N)NO)c(OC)c1C
TGI [1]: 31.7 µM
TGI [2]: > 100 µM
TGI [3]: > 100 µM
TGI [10]: > 100 µM
TGI [4]: 43.1 µM
TGI [5]: > 100 µM
TGI [7]: > 100 µM
TGI [9]: 69.8 µM

CC1(C)O[C@H]2OC(CO)C(N=[N+]=[N-])[C@H]2O1 (some centres undefined)
TGI [1]: > 100 µM
TGI [2]: > 100 µM
TGI [3]: > 100 µM
TGI [10]: > 100 µM
TGI [4]: > 100 µM
TGI [5]: > 100 µM
TGI [6]: > 100 µM
TGI [7]: > 100 µM
TGI [8]: > 100 µM

CC(=O)O[C@@]12CO[C@@H]1CC(O)[C@@]1(C)C(=O)[C@H](O)C3=C(C)C(O)C[C@@](O)(C(OC(=O)c4ccccc4)C12)C3(C)C (some centres undefined)
TGI [1]: > 100 µM
TGI [2]: > 100 µM
TGI [3]: > 100 µM
TGI [10]: > 100 µM
TGI [4]: > 100 µM
TGI [11]: > 100 µM
TGI [7]: > 100 µM
TGI [8]: 0.413 µM
TGI [9]: > 100 µM

CCOC(=O)CCC(NC(=O)OCc1ccccc1)C(=O)NC(CCC(=O)OCC)C(=O)OCC (centres undefined) (Cbz-Glu(OEt)-Glu(OEt)-OEt; configuration not given here)
TGI [1]: > 100 µM
TGI [2]: > 100 µM
TGI [3]: > 100 µM
TGI [10]: > 100 µM
TGI [4]: > 100 µM
TGI [5]: > 100 µM
TGI [6]: > 100 µM
TGI [7]: > 100 µM
TGI [8]: > 100 µM
TGI [9]: > 100 µM

OC(C/C=N/N=C/CC(O)(C(F)(F)Cl)C(F)(F)Cl)(C(F)(F)Cl)C(F)(F)Cl
TGI [1]: > 10 µM
TGI [2]: > 10 µM
TGI [3]: > 10 µM
TGI [10]: > 10 µM
TGI [4]: > 10 µM
TGI [5]: > 10 µM
TGI [6]: > 10 µM
TGI [7]: > 10 µM
TGI [8]: > 10 µM
TGI [9]: > 10 µM

CCCC(=O)[O-].CCCC(=O)[O-].NCCN.NCCN.[Co+3].[O-][Cl+3]([O-])([O-])[O-]
TGI [1]: > 100 µM
TGI [2]: > 100 µM
TGI [3]: > 100 µM
TGI [10]: > 100 µM
TGI [4]: > 100 µM
TGI [5]: > 100 µM
TGI [7]: > 100 µM

O=C1OCC2OC(=O)c3cc(O)c(O)c(O)c3-c3c(O)c(O)c(O)c4c3C(=O)OC(C2OC(=O)c2cc(O)c(O)c(O)c2-c2c1cc(O)c(O)c2O)C1OC(=O)C2C4=C(O)C(=O)C23Oc2cc(O)c4c(c2[C@H]13)O[C@H](c1ccc(O)c(O)c1)[C@@H](O)C4 (some centres undefined)
TGI [1]: > 100 µM
TGI [2]: > 100 µM
TGI [3]: > 100 µM
TGI [10]: > 100 µM
TGI [4]: 56.6 µM
TGI [5]: > 100 µM
TGI [11]: 83.3 µM
TGI [7]: 42 µM
TGI [8]: 45 µM
TGI [9]: 34.9 µM
